± gives the expanded uncertainty stated by the source.
Assay: mn = molality of the nth substance listed, in mol/kg
Conditions: 100 kPa, Liquid; for speed of sound: Frequency=3 MHz, Single path-length method; for mass density: Vibrating tube method

With O=C([O-])C(=O)[O-].[K+].[K+] [potassium oxalate] + O the speed of sound (288.15 K, m1 = 0.2) was 1497 ± 1.4 m/s, the speed of sound (288.15 K, m1 = 0.4) was 1525.3 ± 2.1 m/s and the speed of sound (288.15 K, m1 = 0.6) was 1552.3 ± 1.3 m/s. The speed of sound (288.15 K, m1 = 0.8) was 1580.5 ± 2.6 m/s, the mass density (288.15 K, m1 = 0.2) was 1023.62 ± 0.58 kg/m3 and the mass density (288.15 K, m1 = 0.4) was 1046.97 ± 0.96 kg/m3. The mass density (288.15 K, m1 = 0.6) was 1069.58 ± 1.4 kg/m3, the mass density (288.15 K, m1 = 0.8) was 1092.28 ± 1.9 kg/m3 and the speed of sound (298.15 K, m1 = 0.2) was 1524.8 ± 1.4 m/s. The speed of sound (298.15 K, m1 = 0.4) was 1550.9 ± 1.6 m/s, the speed of sound (298.15 K, m1 = 0.6) was 1576.4 ± 2 m/s and the speed of sound (298.15 K, m1 = 0.8) was 1602.3 ± 2.3 m/s. For the same compound, the mass density (298.15 K, m1 = 0.2) was 1021.1 ± 0.57 kg/m3, the mass density (298.15 K, m1 = 0.4) was 1044.13 ± 0.97 kg/m3 and the mass density (298.15 K, m1 = 0.6) was 1066.44 ± 1.4 kg/m3. It also gave a mass density (298.15 K, m1 = 0.8) of 1088.95 ± 1.8 kg/m3, a speed of sound (308.15 K, m1 = 0.2) of 1545.9 ± 1.4 m/s and a speed of sound (308.15 K, m1 = 0.4) of 1570.5 ± 1.6 m/s. The speed of sound (308.15 K, m1 = 0.6) was 1594.5 ± 1.9 m/s, the speed of sound (308.15 K, m1 = 0.8) was 1618.8 ± 2.2 m/s and the mass density (308.15 K, m1 = 0.2) was 1017.79 ± 0.57 kg/m3. The mass density (308.15 K, m1 = 0.4) was 1040.55 ± 0.96 kg/m3, the mass density (308.15 K, m1 = 0.6) was 1062.69 ± 1.4 kg/m3 and the mass density (308.15 K, m1 = 0.8) was 1084.89 ± 1.8 kg/m3. The speed of sound (318.15 K, m1 = 0.2) was 1561.2 ± 1.3 m/s, the speed of sound (318.15 K, m1 = 0.4) was 1584.6 ± 2.4 m/s and the speed of sound (318.15 K, m1 = 0.6) was 1607.1 ± 1.6 m/s. It also gave a speed of sound (318.15 K, m1 = 0.8) of 1630.1 ± 2.2 m/s, a mass density (318.15 K, m1 = 0.2) of 1013.81 ± 0.56 kg/m3 and a mass density (318.15 K, m1 = 0.4) of 1036.39 ± 0.65 kg/m3. For the same compound, the mass density (318.15 K, m1 = 0.6) was 1058.36 ± 1.6 kg/m3 and the mass density (318.15 K, m1 = 0.8) was 1080.46 ± 1.8 kg/m3.
